Assay results as given in patent US12534729B2, “Uses of synthetic lethal partners for treatment of cancer” (Sanford Burnham Prebys Medical Discovery Institute, priority 2019, dated 2026).

Legend:
ATF4 = assay: Immunoblotting/qRT-PCR of ATF4 induction (GCN2-ATF4 axis) after ASNS knockdown; format: cell-based, human; conditions: for ATF4 induction following ASNS knockdown (immunoblot): melanoma cells, 72 hr, ISRIB 200 nM, eFT508 100 nM, sunitinib 500 nM
Method: (§1) Immunoblotting: Total protein was extracted in Laemmli buffer, fractionated by SDS polyacrylamide gels and transferred to PVDF membranes (Millipore Sigma, MA, USA). After blocking with 5% non-fat dry milk (BD Biosciences, CA, USA), the membranes were incubated with primary antibodies overnight at 4° C. Afterwards, 2 hr incubation with HRP-conjugated secondary antibodies was performed. Following chemiluminescence reaction, the protein signal was visualized using the ChemiDoc imaging system (Bio-Rad, Hercules, CA) according to the manufacturer's instructions.
qPCR Analysis: 1×10^5 cells were seeded O/N per well in 6-well plates. Following treatment for 48 hr, total RNA was extracted using RNeasy Mini Kit (Qiagen, Hilden, Germany). cDNA was synthesized using oligo(dT) and random primers (AB Bioscience, MA, USA), and qPCR analysis was performed with SYBR Green (Roche, NJ, USA). Primers were designed using the PrimerQuest tool (Integrated DNA Technologies, CA, USA) and Primer Bank Actin was used as an internal control.

[1] = tested on: MaNRAS1 (1007) mouse melanoma cells; assay: Subcutaneous MaNRAS1 (1007) NRAS mutant melanoma model; format: in vivo, C57BL/6 mice; conditions: L-A′ase and PD-325901 dosed as in pancreatic study
Method: (§2) In Vivo Studies: All animal studies were conducted in the SBP Medical Discovery Institute Animal Facility in accordance with the Institutional Animal Care and Use Committee guidelines. 8-week-old males C57BL/6 mice were purchased from Jackson laboratories (Bar Harbor, ME) and allowed to acclimatize for 1 week. KRAS^LSLG12D/+. p53^R172H/+; PDX^Cretg/+ (KPC/B6) pancreatic cancer cells (1×10^6, suspended in 30 μl sterile PBS) were orthotopically injected into head of the pancreas. After one week, mice were randomized and sorted into treatment groups (n=8 animal/group). L-A′ase (60 IU/animal) was administered daily for five times a week for 3 weeks intraperitoneally. MEK inhibitor PD-325901 (4 mg/kg) in 0.5% (w/v) hydroxy-propyl-methylcellulose, 0.2% (v/v) Tween 80 (Sigma) was administered by oral gavage twice a week for 3 weeks. For in vivo melanoma study, 8-week-old male C57BL/6 mice were injected subcutaneously in the flank with 2×10^5 MaNRAS1 (1007) cells. When tumors reached ˜250 mm^3, mice were randomized and sorted into treatment groups (n=8 animal/group).
(§3) Mice were maintained in a pathogen-free environment with free access to food. Tumor volume was measured blinded twice a week. Tumor volume was measured with linear calipers and calculated using the formula: ([length in millimeters x (width in millimeters)2]/2). […]

[2] = tested on: KRASLSLG12D/+; p53R172H/+; PDXCretg/+ (KPC/B6) pancreatic tumors; format: in vivo; conditions: same regimen
Method: as §2, §3

ERK1/2 = assay: Immunoblotting of phosphorylated MEK1/2 and ERK1/2 (MAPK signaling); format: cell-based, human; conditions: melanoma cells, 72 hr; gefitinib 1 μM, sunitinib 500 nM
Method: as §1

[3] = tested on: A375 and UACC-903 melanoma cells; assay: Cell proliferation (cell count) of melanoma lines; format: cell-based, human; conditions: PLX-4032 250 nM; for cell proliferation in combination with ASNS knockdown (si-ASNS): melanoma cells, ISRIB 200 nM
Method: siRNA Transfection: 1×10^5 cells were seeded overnight (O/N) per well in 6-well plates. Negative control (NT-siRNA) or si-RNA targeting the transcript of interest was transfected utilizing jetPRIME® transfection reagent, as per manufacturer's instructions (Polyplus, NY, USA). Following siRNAs were used: si-ASNS #1 (SASI_Hs02_00332309), si-ASNS #2 (SASI_Hs01_00116721), si-ASNS #3 (SASI_Hs01_00116722), si-ATF4 (SASI_Hs02_00332313), si-eIF4E (SASI_Hs01_00216117), si-BRAF (SASI_Hs01_00107705), si-GCN2 (SASI_Hs01_00097888), si-MNK #1 (SASI_Hs01_00228422), si-MNK1 #2 (SASI_Hs01_00228423), si-MNK1 #3 (SASI_Hs01_00228424), and the negative control si-RNA (NT-siRNA; SIC001) were purchased from Sigma-Aldrich.
Cell Proliferation: For cell proliferation, 0.3-0.5×10^5 cells were seeded O/N in triplicate in 6-well plate. Following treatment for the specified duration, cells were trypsinized and the cell count was determined with Neubauer hemocytometer (Celeromics, Cambridge, UK).

ATF4 mRNA in A375 cells = assay: Polysome profiling of ATF4 mRNA translation; format: cell-based, human; conditions: si-ASNS plus PLX-4032 500 nM, 48 hr
Method: Polysome Profiling: Polysome profiling was performed as described previously (Gandin et al., 2014). A375 cells were seeded at 30% confluency in a 15-cm Petri dish and transfected with NT-siRNA, si-ASNS, si-MNK1 (#1), or si-ASNS+si-MNK1 for 16 hr, using JetPrime transfection reagent (Polyplus) as per manufacturer's instruction. Post-transfection, cells were replenished with fresh media containing vehicle (DMSO) or 500 nM PLX-4032 (Selleckchem) for 48 hr treatment. […] Optical density values at 260 nm (OD260) were measured in each lysate and OD260 of ˜5 were then loaded in 5-50% sucrose gradients generated using Gradient Master (Biocomp, Fredericton, NB). […] Sucrose gradients were subjected to ultracentrifugation (SW41 Ti 11E1698 rotor; Beckman 39,000 RPM for 2 hr at 4° C.) and fractionated by displacement using 60% sucrose/0.01% bromophenol blue, on ISCO Foxy fraction collector (35 sec for each fraction ˜750 μL per fraction) equipped with an ultraviolet lamp for continuous absorbance monitoring at 254 nm. […] Relative change in the transcript levels in different pools was determined by the 2-ΔΔCT method, and shown as fold-change relative to mock-treated cells. β-Actin was used as an internal control.

**Q.** Which “ATF4 induction following ASNS knockdown (immunoblot)” value (ATF4) does the source give for `Cc1cc(Nc2cc(N)ncn2)c(=O)n2c1C(=O)NC21CCCCC1` [eFT508] here?
**A.** Its value is “did not antagonize ATF4 induction in response to ASNS suppression”.

**Q.** Which “ATF4 induction and upregulation of ATF4 targets following ASNS knockdown” value (ATF4; melanoma and pancreatic cancer cell lines, rapamycin 100 nM, Torin 1 100 nM) does the source give for `CCC(=O)N1CCN(c2ccc(-n3c(=O)ccc4cnc5ccc(-c6cnc7ccccc7c6)cc5c43)cc2C(F)(F)F)CC1` [torin 1] here?
**A.** Its value is “blocked both ATF4 induction and upregulation of ATF4 targets seen following ASNS knockdown”.

**Q.** How did the “tumor growth (volume)” value [1] turn out when `O=C(NOC[C@H](O)CO)c1ccc(F)c(F)c1Nc1ccc(I)cc1F` [PD-325901] was run?
**A.** Its value is “only modest anti-tumor activity”.

**Q.** And the “apoptosis (cleaved caspase-3)” value [2]?
**A.** Its value is “did not result in a significant increase in apoptosis”.

**Q.** `COc1cc2ncnc(Nc3ccc(F)c(Cl)c3)c2cc1OCCCN1CCOCC1` [gefitinib] was tested. Which “MEK1/2 and ERK1/2 phosphorylation under ASNS knockdown” value (ERK1/2) did it give?
**A.** The value was “did not alter ERK1/2 activation under ASNS knockdown conditions”.

**Q.** How did the “ATF4 induction following ASNS knockdown (immunoblot)” value (ATF4) turn out when `O=C(COc1ccc(Cl)cc1)NC1CCC(NC(=O)COc2ccc(Cl)cc2)CC1` (stereo not shown) [ISRIB] was run?
**A.** The value was “suppression of ATF4 induction”.

**Q.** What about the “cell proliferation in combination with ASNS knockdown (si-ASNS)” value [3] of the same compound?
**A.** The value was “potentiated anti-proliferative effects of ASNS depletion in melanoma cells”.

**Q.** For `CCCS(=O)(=O)Nc1ccc(F)c(C(=O)c2c[nH]c3ncc(-c4ccc(Cl)cc4)cc23)c1F` [PLX-4032], which “translational efficiency of ATF4 mRNA (polysome distribution)” value (ATF4 mRNA in A375 cells) is on record?
**A.** Its value is “attenuated increase in translational efficiency of ATF4 mRNA caused by ASNS depletion”.

**Q.** What about the “melanoma cell proliferation, drug alone” value ([3]; BRAF mutant melanoma lines) of the same compound?
**A.** The value was “attenuated melanoma cell proliferation”.

**Q.** What about the “cell proliferation in combination with ASNS knockdown (si-ASNS)” value [3] of the same compound?
**A.** Its value is “a more effective inhibition was seen upon its combination with ASNS knockdown”.
